Measured values reported in the NIST ThermoML archive (doi:10.1021/je0501843).
± gives the expanded uncertainty stated by the source.

Test: wn = mass fraction of the nth substance listed
Details: Fluid (supercritical or subcritical phases), isochoric method, w1 = 0.5001

Compound: FC(F)C(F)(F)F [pentafluoroethane] + FCF
- mass density (348 K, 6505 kPa): 761.1 ± 1.7 kg/m3
- mass density (348 K, 9225 kPa): 859.2 ± 1.7 kg/m3
- mass density (348 K, 14528 kPa): 944 ± 1.9 kg/m3
- mass density (349 K, 5380 kPa): 475.9 ± 2.4 kg/m3
- mass density (349 K, 6732 kPa): 761 ± 1.6 kg/m3
- mass density (349 K, 9535 kPa): 859.1 ± 1.7 kg/m3
- mass density (349 K, 14929 kPa): 943.9 ± 1.9 kg/m3
- mass density (350 K, 5486 kPa): 475.9 ± 3.4 kg/m3
- mass density (350 K, 5543 kPa): 525.9 ± 2.6 kg/m3
- mass density (350 K, 5720 kPa): 615 ± 2.5 kg/m3
- mass density (350 K, 6957 kPa): 761 ± 1.6 kg/m3
- mass density (350 K, 9844 kPa): 859 ± 1.7 kg/m3
- mass density (350 K, 15331 kPa): 943.8 ± 1.9 kg/m3
- mass density (351 K, 5591 kPa): 475.9 ± 3.1 kg/m3
- mass density (351 K, 5661 kPa): 525.9 ± 2.3 kg/m3
- mass density (351 K, 5866 kPa): 615 ± 2.1 kg/m3
- mass density (351 K, 7184 kPa): 760.9 ± 1.6 kg/m3
- mass density (351 K, 10153 kPa): 859 ± 1.7 kg/m3
- mass density (351 K, 15729 kPa): 943.7 ± 1.9 kg/m3
- mass density (352 K, 5697 kPa): 475.9 ± 2.7 kg/m3
- mass density (352 K, 5778 kPa): 525.9 ± 2.3 kg/m3
- mass density (352 K, 5877 kPa): 571.5 ± 2 kg/m3
- mass density (352 K, 6013 kPa): 615 ± 1.9 kg/m3
- mass density (352 K, 7411 kPa): 760.8 ± 1.6 kg/m3
- mass density (352 K, 10462 kPa): 858.9 ± 1.7 kg/m3
- mass density (352 K, 16128 kPa): 943.6 ± 1.9 kg/m3
- mass density (353 K, 5802 kPa): 475.9 ± 2.3 kg/m3
- mass density (353 K, 5898 kPa): 525.9 ± 2.2 kg/m3
- mass density (353 K, 6010 kPa): 571.5 ± 1.9 kg/m3
- mass density (353 K, 6163 kPa): 615 ± 1.8 kg/m3
- mass density (353 K, 7640 kPa): 760.8 ± 1.6 kg/m3
- mass density (353 K, 10771 kPa): 858.8 ± 1.7 kg/m3
- mass density (353 K, 16529 kPa): 943.5 ± 1.9 kg/m3
- mass density (354 K, 5907 kPa): 475.9 ± 2.1 kg/m3
- mass density (354 K, 6017 kPa): 525.8 ± 2 kg/m3
- mass density (354 K, 6144 kPa): 571.4 ± 1.8 kg/m3
- mass density (354 K, 6312 kPa): 614.9 ± 1.7 kg/m3
- mass density (354 K, 7867 kPa): 760.7 ± 1.6 kg/m3
- mass density (354 K, 11082 kPa): 858.7 ± 1.7 kg/m3
- mass density (354 K, 16929 kPa): 943.4 ± 1.9 kg/m3
- mass density (355 K, 6013 kPa): 475.9 ± 1.9 kg/m3
- mass density (355 K, 6136 kPa): 525.8 ± 1.8 kg/m3
- mass density (355 K, 6277 kPa): 571.4 ± 1.7 kg/m3
- mass density (355 K, 6460 kPa): 614.9 ± 1.6 kg/m3
- mass density (355 K, 8099 kPa): 760.7 ± 1.6 kg/m3
- mass density (355 K, 11393 kPa): 858.7 ± 1.7 kg/m3
- mass density (355 K, 17330 kPa): 943.3 ± 1.9 kg/m3
- mass density (356 K, 6119 kPa): 475.9 ± 1.8 kg/m3
- mass density (356 K, 6256 kPa): 525.8 ± 1.8 kg/m3
- mass density (356 K, 6409 kPa): 571.4 ± 1.6 kg/m3
- mass density (356 K, 6610 kPa): 614.9 ± 1.4 kg/m3
- mass density (356 K, 8331 kPa): 760.6 ± 1.6 kg/m3
- mass density (356 K, 11703 kPa): 858.6 ± 1.7 kg/m3
- mass density (356 K, 17728 kPa): 943.3 ± 1.9 kg/m3
- mass density (357 K, 6227 kPa): 475.9 ± 1.7 kg/m3
- mass density (357 K, 6375 kPa): 525.8 ± 1.7 kg/m3
- mass density (357 K, 6544 kPa): 571.4 ± 1.5 kg/m3
- mass density (357 K, 6762 kPa): 614.8 ± 1.4 kg/m3
- mass density (357 K, 8563 kPa): 760.6 ± 1.6 kg/m3
- mass density (357 K, 12015 kPa): 858.5 ± 1.7 kg/m3
- mass density (357 K, 18129 kPa): 943.2 ± 1.9 kg/m3
- mass density (358 K, 6332 kPa): 475.9 ± 1.6 kg/m3
- mass density (358 K, 6496 kPa): 525.8 ± 1.5 kg/m3
- mass density (358 K, 6679 kPa): 571.3 ± 1.5 kg/m3
- mass density (358 K, 6913 kPa): 614.8 ± 1.4 kg/m3
- mass density (358 K, 8795 kPa): 760.5 ± 1.6 kg/m3
- mass density (358 K, 12328 kPa): 858.4 ± 1.7 kg/m3
- mass density (358 K, 18529 kPa): 943.1 ± 1.9 kg/m3
- mass density (359 K, 6438 kPa): 475.9 ± 1.5 kg/m3
- mass density (359 K, 6616 kPa): 525.8 ± 1.5 kg/m3
- mass density (359 K, 6814 kPa): 571.3 ± 1.5 kg/m3
- mass density (359 K, 7064 kPa): 614.8 ± 1.5 kg/m3
- mass density (359 K, 9028 kPa): 760.4 ± 1.6 kg/m3
- mass density (359 K, 12639 kPa): 858.4 ± 1.7 kg/m3
- mass density (359 K, 18928 kPa): 943 ± 1.9 kg/m3
- mass density (360 K, 6544 kPa): 475.9 ± 1.4 kg/m3
- mass density (360 K, 6737 kPa): 525.8 ± 1.4 kg/m3
- mass density (360 K, 6948 kPa): 571.3 ± 1.4 kg/m3
- mass density (360 K, 7219 kPa): 614.7 ± 1.4 kg/m3
- mass density (360 K, 9258 kPa): 760.4 ± 1.6 kg/m3
- mass density (360 K, 12952 kPa): 858.3 ± 1.7 kg/m3
- mass density (361 K, 6650 kPa): 475.8 ± 1.4 kg/m3
- mass density (361 K, 6858 kPa): 525.7 ± 1.4 kg/m3
- mass density (361 K, 7085 kPa): 571.3 ± 1.4 kg/m3
- mass density (361 K, 7368 kPa): 614.7 ± 1.4 kg/m3
- mass density (361 K, 9493 kPa): 760.3 ± 1.6 kg/m3
- mass density (361 K, 13265 kPa): 858.2 ± 1.7 kg/m3
- mass density (362 K, 6758 kPa): 475.8 ± 1.3 kg/m3
- mass density (362 K, 6980 kPa): 525.7 ± 1.4 kg/m3
- mass density (362 K, 7222 kPa): 571.2 ± 1.4 kg/m3
- mass density (362 K, 7523 kPa): 614.7 ± 1.4 kg/m3
- mass density (362 K, 9726 kPa): 760.3 ± 1.6 kg/m3
- mass density (362 K, 13581 kPa): 858.1 ± 1.7 kg/m3
- mass density (363 K, 6864 kPa): 475.8 ± 1.3 kg/m3
- mass density (363 K, 7101 kPa): 525.7 ± 1.3 kg/m3
- mass density (363 K, 7357 kPa): 571.2 ± 1.4 kg/m3
- mass density (363 K, 7676 kPa): 614.6 ± 1.4 kg/m3
- mass density (363 K, 9958 kPa): 760.2 ± 1.6 kg/m3
